From patent US4383113A, “Agricultural sulfonamides” (E. I. Du Pont de Nemours and Company, priority 1981, dated 1983)

Legend:
[1] = system: mixed vegetation, overall; assay: Test K field post-emergence; assay type: in vivo; conditions: 16 weeks
Experimental: (§1) The response of a number of noxious weed species to post-emergence applications of the same compound as used in Test J was studied in another field test. At the time of treatment, one month after mowing, the mixed vegetation was approximately 15 cm tall. The chemical was applied in water containing 0.2% of Surfactant WK® at an overall volume of 500 l/ha. Each treatment was replicated three times. Approximately 5 cm of rainfall was recorded 4 days after treatment and an additional 37 cm fell before weed control ratings were made 16 weeks after treatment.

dewberry = assay: Test K field post-emergence; assay type: in vivo; conditions: 16 weeks
Experimental: as §1

purpletop = assay: Test K field post-emergence; assay type: in vivo; conditions: 16 weeks
Experimental: as §1

broadleaves = assay: Test K field post-emergence; assay type: in vivo; conditions: 16 weeks
Experimental: as §1

golden rod = assay: Test K field post-emergence; assay type: in vivo; conditions: 16 weeks
Experimental: as §1

grasses [2] = assay: Test K field post-emergence; assay type: in vivo; conditions: 16 weeks
Experimental: as §1

broomsedge = assay: Test K field post-emergence; assay type: in vivo; conditions: 16 weeks
Experimental: as §1

poison ivy = assay: Test K field post-emergence; assay type: in vivo; conditions: 16 weeks
Experimental: as §1

dandelion = assay: Test I perennial foliage spray; assay type: in vivo, Taraxacum officinale
Description: (§2) Five-inch in diameter plastic pots were filled with a 50-50 mixture of Fallsington silt loam soil and sand and seeds of the following planted (one plant species per pot): milkweed vine (Morrenia odorata), plantain (Plantago spp.), burdock (Arctium minus), field bindweed (Convolvulus arvensis), dandelion (Taraxacum officinale), horsenettle (Solanum carolinense), bermudagrass (Cynodon dactylon), quackgrass (Agropyron repens), dallisgrass (Paspalum dilatatum) and johnsongrass (Sorghum halepense). The pots were placed in the greenhouse and the plants grown for several weeks.
(§3) The compound evaluated was diluted with a non-phytotoxic solvent and sprayed on the plant foliage. Untreated and solvent controls were included for comparison. One and eight weeks after treatment, a visual rating of the compound's effects on plant growth were made.

plantain = assay: Test I perennial foliage spray; assay type: in vivo, Plantago spp.
Description: as §2, §3

horsenettle = assay: Test I perennial foliage spray; assay type: in vivo, Solanum carolinense
Description: as §2, §3

quackgrass = assay: Test I perennial foliage spray; assay type: in vivo, Agropyron repens
Description: as §2, §3

bermudagrass = assay: Test I perennial foliage spray; assay type: in vivo, Cynodon dactylon; conditions: 1 week
Description: as §2, §3

dallisgrass = assay: Test I perennial foliage spray; assay type: in vivo, Paspalum dilatatum
Description: as §2, §3

johnsongrass = assay: Test I perennial foliage spray; assay type: in vivo, Sorghum halepense
Description: as §2, §3

burdock = assay: Test I perennial foliage spray; assay type: in vivo, Arctium minus
Description: as §2, §3

milkweed vine = assay: Test I perennial foliage spray; assay type: in vivo, Morrenia odorata
Description: as §2, §3

field bindweed = assay: Test I perennial foliage spray; assay type: in vivo, Convolvulus arvensis
Description: as §2, §3

mustard = assay: Test E pre-emergence; assay type: in vivo, Brassica arvensis
Description: (§4) The containers used were 25 cm diameter plastic pots filled with fertilized and limed Fallsington silt loam. Plantings of the following weed species were made twice, at a 10-day interval: mustard (Brassica arvensis), cocklebur (Xanthium spp.), morningglory (Ipomoea hederacea), cassia (Cassia tora), velvetleaf (Abutilon theophrasti), alfalfa (used as an indicator species), kochia (Kochia scoparia), sesbania (Sesbania exaltata), Russian thistle (Salsola kali), jimsonweed (Datura stramonium),and nutsedge (Cyperus rotundus). In addition, wheat and barley were planted in separate 15 cm diameter plastic pots filled with the same soil at the time of the early planting only. All plantings were treated with the test chemicals dissolved in a non-phytotoxic solvent immediately following completion of the second planting operation. At this time, the wheat was around 15-17.5 cm tall and the barley 12.5 to 15 cm tall, both in the 2-leaf stage of growth. The weed species of the earliest planting date were from 2.5 to 12.5 cm tall. The rates of application selected were 0.004, 0.007, 0.015 and 0.030 kg/ha for the weed phase and 0.12, 0.25 and 0.50 kg/ha for wheat and barley. The post-emergence part of this test was visually rated for plant response 21 days after treatment, and the pre-emergence part 28 days after treatment.

velvetleaf = assay: Test E pre-emergence; assay type: in vivo, Abutilon theophrasti
Description: as §4

morningglory = assay: Test E pre-emergence; assay type: in vivo, Ipomoea hederacea
Description: as §4

Russian thistle = assay: Test E pre-emergence; assay type: in vivo, Salsola kali
Description: as §4

nutsedge = assay: Test E pre-emergence; assay type: in vivo, Cyperus rotundus
Description: as §4

alfalfa [3] = assay: Test E pre-emergence; assay type: in vivo
Description: as §4

kochia = assay: Test E pre-emergence; assay type: in vivo, Kochia scoparia
Description: as §4

wheat = assay: Test D pre-emergence on soil; assay type: in vivo; conditions: 1/8 kg/ha
Description: (§5) The high herbicidal activity of one of the compounds from within the scope of the invention is evident from the results obtained in this test. The experiment concerned pre-emergence applications on soil. The containers used were 25 cm diameter plastic pots filled with Fallsington silt loam. One set of pots was planted to weeds the seeds of which were uniformly mixed with the top 1.2 cm layer of soil. The species selected were: johnsongrass (Sorghum halepense), barnyardgrass (Echinochloa crusgalli), crabgrass (Digitaria sanguinalis), giant foxtail (Setaria faberii), velvetleaf (Abutilon theophrasti), jimsonweed (Datura stramonium), mustard (Brassica arvensis) and pigweed (Amaranthus retroflexus). Another set of pots was planted to the following crops with from one to four species per pot: corn (planting depth 3.7 cm), cotton, soybeans, sunflower, Clinton oats, wheat, Black Valentine beans, rice, sorghum, peas, flax and peanuts (all at 2.5 cm depth), cucumbers, cabbage, alfalfa, safflower, sugarbeets, tomato, spinach, barley and Kentucky bluegrass (all at 1.2 cm depth). Immediately after planting, the test chemical was applied to the soil surfaces dissolved in a non-phytotoxic solvent. One pot from the weed phase and one of each of the crop species were left untreated for the purpose of comparison. The treated and untreated pots were promptly watered with approximately 4 mm of simulated rainfall and then held in a greenhouse for several weeds. Visual weed and crop response ratings were made 28 days after treatment utilizing the rating system as described above for test procedure A. The data are given in Table XV.

alfalfa [4] = assay: Test D pre-emergence on soil; assay type: in vivo; conditions: 1/8 kg/ha
Description: as §5

spinach = assay: Test D pre-emergence on soil; assay type: in vivo; conditions: 1/8 kg/ha
Description: as §5

grasses [5] = assay: Test D pre-emergence on soil; assay type: in vivo; conditions: 1/64 kg/ha
Description: as §5

corn = assay: Test D pre-emergence on soil; assay type: in vivo; conditions: 1/8 kg/ha
Description: as §5

cabbage = assay: Test D pre-emergence on soil; assay type: in vivo; conditions: 1/8 kg/ha
Description: as §5

sorghum = assay: Test D pre-emergence on soil; assay type: in vivo; conditions: 1/8 kg/ha
Description: as §5

sugarbeet = assay: Test D pre-emergence on soil; assay type: in vivo, sugarbeets; conditions: 1/8 kg/ha
Description: as §5, with “The treated and untreated pots were promptly watered with approximately 4 mm of simulated rainfall and then held in a greenhouse for several weeds. Visual weed and crop response ratings were made 28 days after treatment utilizing the rating system as described above for test procedure A. The data are given in Table XV.” left out

pea = assay: Test D pre-emergence on soil; assay type: in vivo, peas; conditions: 1/8 kg/ha
Description: as §5, with “The treated and untreated pots were promptly watered with approximately 4 mm of simulated rainfall and then held in a greenhouse for several weeds. Visual weed and crop response ratings were made 28 days after treatment utilizing the rating system as described above for test procedure A. The data are given in Table XV.” left out

Ky. bluegrass = assay: Test D pre-emergence on soil; assay type: in vivo, Kentucky bluegrass; conditions: 1/8 kg/ha
Description: as §5, with “The treated and untreated pots were promptly watered with approximately 4 mm of simulated rainfall and then held in a greenhouse for several weeds. Visual weed and crop response ratings were made 28 days after treatment utilizing the rating system as described above for test procedure A. The data are given in Table XV.” left out

sesbania = assay: Test E pre-emergence; assay type: in vivo, Sesbania exaltata; conditions: 1/64 kg/ha
Description: as §4

SMILES: COC(=O)c1ccccc1S(=O)(=O)NC(=O)Nc1nc(C)cc(C)n1 [drawing 613]
- mean % weed control ([1]; 1.0 kg/ha): 90%
- mean % weed control ([1]; 2.0 kg/ha): 94%
- mean % weed control ([1]; .5 kg/ha): 81%
- mean % weed control (dewberry; 1.0 kg/ha): 100%
- mean % weed control (dewberry; 2.0 kg/ha): 100%
- mean % weed control (dewberry; .5 kg/ha): 97%
- mean % weed control (purpletop; 1.0 kg/ha): 80%
- mean % weed control (purpletop; 2.0 kg/ha): 92%
- mean % weed control (purpletop; .5 kg/ha): 73%
- mean % weed control (broadleaves; 1.0 kg/ha): 96%
- mean % weed control (broadleaves; 2.0 kg/ha): 98%
- mean % weed control (broadleaves; .5 kg/ha): 91%
- mean % weed control (golden rod; 1.0 kg/ha): 100%
- mean % weed control (golden rod; 2.0 kg/ha): 100%
- mean % weed control (golden rod; .5 kg/ha): 100%
- mean % weed control (grasses [2]; 1.0 kg/ha): 84%
- mean % weed control (grasses [2]; 2.0 kg/ha): 93%
- mean % weed control (grasses [2]; .5 kg/ha): 81%
- mean % weed control (broomsedge; 1.0 kg/ha): 73%
- mean % weed control (broomsedge; 2.0 kg/ha): 86%
- mean % weed control (broomsedge; .5 kg/ha): 71%
- mean % weed control (poison ivy; 1.0 kg/ha): 85%
- mean % weed control (poison ivy; 2.0 kg/ha): 95%
- mean % weed control (poison ivy; .5 kg/ha): 67%

SMILES: COC(=O)c1ccccc1S(=O)(=O)NC(=O)Nc1nc(C)cc(C)n1 [drawing 611]
- plant response rating (dandelion; 1 week, 1/4 kg/ha): 0
- plant response rating (dandelion; 1 week, 1/8 kg/ha): 0
- plant response rating (dandelion; 8 weeks, 1/4 kg/ha): 10C
- plant response rating (dandelion; 8 weeks, 1/8 kg/ha): 10C
- plant response rating (plantain; 1 week, 1/4 kg/ha): 0
- plant response rating (plantain; 1 week, 1/8 kg/ha): 0
- plant response rating (plantain; 8 weeks, 1/4 kg/ha): 10C
- plant response rating (plantain; 8 weeks, 1/8 kg/ha): 10C
- plant response rating (horsenettle; 1 week, 1/4 kg/ha): 1C
- plant response rating (horsenettle; 1 week, 1/8 kg/ha): 0
- plant response rating (horsenettle; 8 weeks, 1/4 kg/ha): 10C
- plant response rating (horsenettle; 8 weeks, 1/8 kg/ha): 5C
- plant response rating (quackgrass; 1 week, 1/4 kg/ha): 7C
- plant response rating (quackgrass; 1 week, 1/8 kg/ha): 6C
- plant response rating (quackgrass; 8 weeks, 1/4 kg/ha): 10C
- plant response rating (quackgrass; 8 weeks, 1/8 kg/ha): 10C
- plant response rating (bermudagrass; 1/4 kg/ha): 6C
- plant response rating (bermudagrass; 1/8 kg/ha): 5C
- plant response rating (dallisgrass; 1 week, 1/4 kg/ha): 6C
- plant response rating (dallisgrass; 1 week, 1/8 kg/ha): 6C
- plant response rating (dallisgrass; 8 weeks, 1/4 kg/ha): 10C
- plant response rating (johnsongrass; 1 week, 1/4 kg/ha): 9C
- plant response rating (johnsongrass; 1 week, 1/8 kg/ha): 8C
- plant response rating (johnsongrass; 8 weeks, 1/4 kg/ha): 10C
- plant response rating (johnsongrass; 8 weeks, 1/8 kg/ha): 10C
- plant response rating (burdock; 1 week, 1/4 kg/ha): 0
- plant response rating (burdock; 1 week, 1/8 kg/ha): 0
- plant response rating (burdock; 8 weeks, 1/4 kg/ha): 10C
- plant response rating (burdock; 8 weeks, 1/8 kg/ha): 4C
- plant response rating (milkweed vine; 1 week, 1/4 kg/ha): 0
- plant response rating (milkweed vine; 1 week, 1/8 kg/ha): 0
- plant response rating (milkweed vine; 8 weeks, 1/4 kg/ha): 10C
- plant response rating (milkweed vine; 8 weeks, 1/8 kg/ha): 10C
- plant response rating (field bindweed; 1 week, 1/4 kg/ha): 2C
- plant response rating (field bindweed; 1 week, 1/8 kg/ha): 0
- plant response rating (field bindweed; 8 weeks, 1/4 kg/ha): 8C
- plant response rating (field bindweed; 8 weeks, 1/8 kg/ha): 7C

SMILES: COc1nc(C)nc(NC(=O)NS(=O)(=O)c2ccccc2C(=O)OC(C)C)n1 [drawing 588]
- response rating (mustard; 1/32 kg/ha): 10C
- response rating (mustard; 1/64 kg/ha): 10C
- response rating (mustard; 1/128 kg/ha): 10C
- response rating (mustard; 1/256 kg/ha): 10C
- response rating (velvetleaf; 1/32 kg/ha): 10C
- response rating (velvetleaf; 1/64 kg/ha): 10C
- response rating (morningglory; 1/32 kg/ha): 10C
- response rating (morningglory; 1/64 kg/ha): 10C
- response rating (Russian thistle; 1/32 kg/ha): 10C
- response rating (Russian thistle; 1/64 kg/ha): 10C
- response rating (Russian thistle; 1/128 kg/ha): 8C
- response rating (Russian thistle; 1/256 kg/ha): 7C
- response rating (nutsedge; 1/32 kg/ha): 8G
- response rating (nutsedge; 1/64 kg/ha): 8G
- response rating (alfalfa [3]; 1/256 kg/ha): 7G
- response rating (kochia; 1/32 kg/ha): 10C
- response rating (kochia; 1/64 kg/ha): 10C
- response rating (kochia; 1/128 kg/ha): 10C

SMILES: COC(=O)c1ccccc1S(=O)(=O)NC(=O)Nc1nc(OC)cc(OC)n1 [drawing 586]
- response rating (wheat): 10C
- response rating (alfalfa [4]): 10C
- response rating (spinach): 10C
- response rating (grasses [5]): 6G
- response rating (corn): 10C
- response rating (cabbage): 10C
- response rating (sorghum): 10C
- response rating (sugarbeet): 10C
- response rating (pea): 10C
- response rating (Ky. bluegrass): 10C

SMILES: COc1nc(NC(=O)NS(=O)(=O)c2ccccc2C(=O)OC(C)C)nc(OC)n1 [drawing 587]
- response rating (mustard; 1/32 kg/ha): 10C
- response rating (mustard; 1/64 kg/ha): 10C
- response rating (mustard; 1/128 kg/ha): 10C
- response rating (morningglory; 1/32 kg/ha): 8G
- response rating (sesbania): 8G
- response rating (Russian thistle; 1/32 kg/ha): 9C
- response rating (Russian thistle; 1/64 kg/ha): 7C
- response rating (Russian thistle; 1/128 kg/ha): 7C
- response rating (Russian thistle; 1/256 kg/ha): 5C
- response rating (nutsedge; 1/64 kg/ha): 9G
- response rating (nutsedge; 1/128 kg/ha): 8G
- response rating (nutsedge; 1/256 kg/ha): 7G
- response rating (alfalfa [3]; 1/64 kg/ha): 5G
- response rating (alfalfa [3]; 1/256 kg/ha): 5G
- response rating (kochia; 1/32 kg/ha): 10C
- response rating (kochia; 1/64 kg/ha): 10C
- response rating (kochia; 1/128 kg/ha): 10C
